This note sets out measurements from US6586630B1, “Ethylamine derivatives” (Chugai Seiyaku Kabushiki Kaisha, priority 1998, dated 2003).

Experiment [1] concerns motilin-induced contraction of longitudinal muscle in the duodenum. The experiment can be described thus: Contraction suppressing test: motilin-induced contraction of a specimen of longitudinal muscle in the duodenum extracted from a rabbit. The class given is cell-based. As to conditions: rabbit duodenum longitudinal muscle in organ bath, Krebs solution 28° C.; effect on dose-dependent contraction by motilin. As for the experimental part:
Action on the Contraction of a Specimen of Longitudinal Muscle in the Duodenum Extracted from a Rabbit
The action on the motilin-induced contraction of a specimen of longitudinal muscle in the duodenum extracted from a rabbit was investigated by the following method. A duodenum specimen extracted from a slaughtered rabbit (5×15 mm) was suspended in an organ bath (10 ml) such that the longitudinal muscle would run vertically; the bath was filled with a Krebs solution kept at 28° C. A mixed gas (95% O2 and 5% CO2) was continuously bubbled into the Krebs solution and the contraction of the duodenum specimen was recorded isotonically (with a 1-g load) via an isotonic transducer (ME-3407, ME Commercial, Tokyo, Japan). The degree of contraction was expressed in relative values, with the contraction by acetylcholine at a dose of 10^−4 M being taken as 100%. The activity of the compound was calculated as pA2 value indicating its effect on the dose-dependent muscle contraction by the motilin put into the organ bath.

Experiment [2] has as its target T1, Motilin receptor (Oryctolagus cuniculus, UniProt G1T803).
T1 construct: had the mucous membrane separated and homogenized in 50 mM Tris buffer to prepare a protein sample; from tissue; host or cells: rabbit duodenum with the mucous membrane separated, homogenate
The experiment can be described thus: Motilin receptor binding test (125I motilin, rabbit duodenum protein sample). As to conditions: 125I motilin 25 pM, concentration reducing specific binding by 50%. As for the experimental part:
Motilin Receptor Binding Test
A motilin receptor binding test was conducted in the following manner [Vantrappen et al., Regul. Peptides, 15, 143 (1986)]. The duodenum was extracted from a slaughtered rabbit, had the mucous membrane separated and homogenized in 50 mM Tris buffer to prepare a protein sample. The protein sample was incubated together with ^125I motilin 25 pM and thereafter the radioactivity bound to the protein was measured. Specific binding was defined as the difference between the radioactivity in the case of no adding and that in the case of adding a great excess amount of motilin (10^−7 M). The activity of the compound was expressed by IC50 (in nM), as the concentration sufficient to reduce the specific binding by 50%.

T1 sequence (G1T803 1-400): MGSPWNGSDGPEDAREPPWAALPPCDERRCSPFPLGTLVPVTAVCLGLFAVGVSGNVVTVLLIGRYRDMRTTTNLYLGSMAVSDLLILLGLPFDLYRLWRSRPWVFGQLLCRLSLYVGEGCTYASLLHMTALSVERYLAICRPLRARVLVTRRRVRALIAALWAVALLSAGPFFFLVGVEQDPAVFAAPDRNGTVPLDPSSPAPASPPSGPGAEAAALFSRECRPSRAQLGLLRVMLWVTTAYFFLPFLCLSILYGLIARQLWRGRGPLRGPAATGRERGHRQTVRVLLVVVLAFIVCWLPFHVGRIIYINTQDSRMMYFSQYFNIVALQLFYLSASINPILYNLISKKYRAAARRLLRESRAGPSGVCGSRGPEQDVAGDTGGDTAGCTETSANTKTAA

On to `CC(C)[C@@H](C(=O)NC(Cc1ccc(F)c(C(C)(C)C)c1)C(N)=O)N(C)C(=O)[C@@H](N)Cc1ccccc1` (single isomer, unassigned) [7 (A), Phe-N-Me-Val-Phe(3-tBu-4-F)—NH2], for which, in experiment [1], the “Contraction suppressing test, pA2” value was determined as 7.58. Moreover, the IC50 – broadly, the concentration that inhibits the measured activity by half – in experiment [2] came to 3.5 nM.
